In PubChem BioAssay (NCI):
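How tested: cells in 96-well plates exposed to compound for 48 hours at five concentrations. GI50 is the concentration that inhibits growth by half. TGI marks complete inhibition of growth.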

Key:
Experiment in all cases: NCI anticancer screen, dose series, 48 h
RPMI-8226 leukemia = test system: RPMI-8226 leukemia
NCI-H23 lung = test system: NCI-H23 lung
SNB-75 CNS = test system: SNB-75 CNS
SK-MEL-2 melanoma = test system: SK-MEL-2 melanoma
UACC-257 melanoma = test system: UACC-257 melanoma
RXF 393 renal = test system: RXF 393 renal
OVCAR-4 ovarian = test system: OVCAR-4 ovarian
HCT-15 colon = test system: HCT-15 colon

Row | SMILES | TGI (RPMI-8226 leukemia) [µM] | TGI (NCI-H23 lung) [µM] | TGI (SNB-75 CNS) [µM] | TGI (SK-MEL-2 melanoma) [µM] | TGI (UACC-257 melanoma) [µM] | TGI (RXF 393 renal) [µM] | TGI (OVCAR-4 ovarian) [µM] | TGI (HCT-15 colon) [µM] | GI50 (RXF 393 renal) [µM] | GI50 (OVCAR-4 ovarian) [µM] | GI50 (HCT-15 colon) [µM]
1 | C/C(CC(=O)Nc1ccc(Cl)cc1)=N\NC(=O)C[n+]1ccccc1 | > 100 | > 100 | > 100 | > 100 | > 100 | > 100 |  |  |  |  | 
2 | NC(CC(=O)Nc1ccc(Cl)cc1)=Nc1ccccc1 |  | > 100 | > 100 | > 100 | > 100 | > 100 | > 100 |  |  |  | 
3 | CCCCN=C(NC#N)N(Cc1ccccc1)Cc1ccccc1 | 40.8 | 77.4 | > 100 | 36.8 | 64.9 | 65.5 | > 100 | 29.8 |  |  | 
4 | O=c1cc(-c2ccccc2)[nH]c2c(Cl)cccc12 | > 100 | > 100 | 54.8 | > 100 | > 100 | 67.1 | 66.3 | > 100 |  |  | 
5 | CC(C)(O)[C@@H]1CC[C@@]2(C)CCC[C@H](O)[C@H]2C1 | > 100 | > 100 | > 100 | > 100 | > 100 |  | > 100 | > 100 |  |  | 
6 | O=C1C2=C(CCCCC2)C2CCCCC12O (stereo unspecified) | > 100 | > 100 | > 100 | > 100 | > 100 | > 100 |  |  |  |  | 
7 | CCOC(=O)c1cc2c(cn1)[nH]c1cccc(N)c12 |  | > 100 | > 100 |  | > 100 | > 100 | > 100 |  |  |  | 
8 | O=C1C2CC=CCC2C(=O)C12CCc1ccccc12 (stereo unspecified) |  | > 100 | > 100 |  |  | > 100 | > 100 | > 100 |  |  | 
9 | O=[P+](O)c1cc2ccccc2c2ccccc12 | > 100 | > 100 | > 100 |  |  | > 100 | > 100 |  |  |  | 
10 | CN(C(=O)C12C3(C(=O)C(C)(C)C)C4C5(C#N)C3C1(C(=O)C(C)(C)C)C5C42C(=O)C(C)(C)C)C(C)(C)C (stereo unspecified) |  | > 50 | > 50 |  | > 50 |  | > 50 | > 50 |  |  | 
11 | Cc1ccc(S(=O)(=O)C2c3nc4ccccc4cc3-c3nc4ccccc4nc32)cc1 (stereo unspecified) | > 100 | > 100 | > 100 | > 100 | > 100 |  | > 100 | > 100 |  |  | 
12 | COc1ccc(C2=Nc3c/c(=C\c4c(O)[nH]c5ccc(Cl)cc45)ccc3=N2)cc1 |  |  |  |  |  | 3.15 | 3.34 | 2.77 | 1.58 | 1.8 | 1.26
13 | Nc1nc(NC2C=C(CO)C(O)C2O)c([N+](=O)[O-])c(=O)[nH]1 (stereo unspecified) |  | > 100 | > 100 | > 100 | > 100 | > 100 | > 100 | > 100 |  |  | 
